Key:
[1] = tested on: MOLM-14 cells (FLT3-ITD positive); test: Cell proliferation, trypan blue counting, MOLM-14; type: cell-based, human; details: 200 nM
Experimental: (§1) Cells were harvested each day and counted after trypan blue staining. The graphs represent three independent experiments.
Cell lines and reagents. […] Concerning MOLM-14 cell line, the presence of a monoallelic 21 bp FLT3-ITD mutation and of an MLL-containing ins(11; 9)(q23;p22p23) were verified (Hematology laboratory of Toulouse University Hospital, Prof E. Delabesse and Dr I. Luquet). KG1 and HL-60 (ACC-14 and ACC-3, DSMZ) cell lines were grown in Iscove's Modified Dulbecco's Medium (IMDM, Gibco) plus 20% FBS. All cells were grown in the presence of 100 units/ml of penicillin and streptomycin (Invitrogen) at 37° C. and 5% CO2.
siRNA. The MV4-11 cell line was transfected with the Amaxa nucleofection technology (Lonza, Koeln, Germany). […] Twenty-four or forty-eight hours after transfection, cells were counted (trypan blue staining), and western blotting was performed.

[2] = tested on: KG1 cells (FLT3 wild type); test: Cell proliferation, trypan blue counting, KG1; type: cell-based, human
Experimental: (§2) (a) MV4-11 and MOLM-14 FLT3-ITD positive cells, KG1, HL-60 and TF-1 FLT3 wild type cells, and K562 FLT3 negative cells were cultured in the presence of the CDC25 inhibitor IRC-083864 (200 nM). Cells were harvested each day and counted after trypan blue coloration. The graph represents three independent experiments.
Cell lines and reagents. Human acute myeloid leukemia cell lines MOLM-14 (Matsuo Y et al, Leukemia 1997) (kindly provided by Martin Carroll, University of Pennsylvania, Philadelphia, Pa., USA) MV4-11, K562 (ACC-102 and ACC-10, DSMZ, Braunschweig, Germany) and FLT3-ITD-expressing murine BaF3 cells were cultured in RPMI 1640 medium (Gibco, Life Technologies, Carlsbad, Calif., USA) supplemented with 10% fetal bovine serum (Sigma, Saint Louis, Calif., USA). TF-1 (ATCC-CRL2003) cells were cultured in RPMI 1640 medium with 10% fetal bovine serum and GM-CSF 2 ng/ml. Concerning MOLM-14 cell line, the presence of a monoallelic 21 bp FLT3-ITD mutation and of an MLL-containing ins(11; 9)(q23;p22p23) were verified (Hematology laboratory of Toulouse University Hospital, Prof E. Delabesse and Dr I. Luquet). KG1 and HL-60 (ACC-14 and ACC-3, DSMZ) cell lines were grown in Iscove's Modified Dulbecco's Medium (IMDM, Gibco) plus 20% FBS. […]
siRNA. […] Twenty-four or forty-eight hours after transfection, cells were counted (trypan blue staining), and western blotting was performed.

[3] = tested on: TF-1 cells (FLT3 wild type); test: Cell proliferation, trypan blue counting, TF-1; type: cell-based, human; details: 200 nM
Experimental: as §2
(§3) Cell lines and reagents. Human acute myeloid leukemia cell lines MOLM-14 (Matsuo Y et al, Leukemia 1997) (kindly provided by Martin Carroll, University of Pennsylvania, Philadelphia, Pa., USA) MV4-11, K562 (ACC-102 and ACC-10, DSMZ, Braunschweig, Germany) and FLT3-ITD-expressing murine BaF3 cells were cultured in RPMI 1640 medium (Gibco, Life Technologies, Carlsbad, Calif., USA) supplemented with 10% fetal bovine serum (Sigma, Saint Louis, Calif., USA). TF-1 (ATCC-CRL2003) cells were cultured in RPMI 1640 medium with 10% fetal bovine serum and GM-CSF 2 ng/ml. Concerning MOLM-14 cell line, the presence of a monoallelic 21 bp FLT3-ITD mutation and of an MLL-containing ins(11; 9)(q23;p22p23) were verified (Hematology laboratory of Toulouse University Hospital, Prof E. Delabesse and Dr I. Luquet). KG1 and HL-60 (ACC-14 and ACC-3, DSMZ) cell lines were grown in Iscove's Modified Dulbecco's Medium (IMDM, Gibco) plus 20% FBS. All cells were grown in the presence of 100 units/ml of penicillin and streptomycin (Invitrogen) at 37° C. and 5% CO2.

[4] = tested on: K562 cells (FLT3 negative); test: Cell proliferation, trypan blue counting, K562; type: cell-based, human; details: 200 nM
Experimental: as §2, §3

[5] = tested on: MOLM-14 TKD cells (FLT3-ITD-D835Y); test: Cell proliferation, MOLM-14 expressing FLT3-ITD/TKD (D835Y); type: cell-based, human; details: 200 nM
Description: as §1
We consequently developed a cellular model consisting of MOLM-14 cells transfected with a FLT3-ITD mutant with a D835Y amino-acid substitution within the FLT3 kinase domain (FLT3-ITD-D835Y; FLT3-ITD/TKD).

[6] = tested on: FLT3-ITD positive primary AML cells; test: Clonogenic assay, FLT3-ITD positive primary AML cells; type: cell-based, human; details: 100 and 200 nM, day 7, semi-solid 5637 conditioned medium
Experimental: (c) Primary cells from patients were cultured in semi-solid medium to estimate their clonogenic potential as described in the Methods section, in the presence or the absence of IRC-083864 (100 and 200 nM). 6 FLT3-ITD positive (upper panel) and 4 FLT3-wild type (lower panel) AML primary samples were used for these experiments. Leukemic colonies were scored under an inverted microscope at day 7.
Patient samples. Patient AML samples were obtained after informed consent in accordance with the Declaration of Helsinki and stored at the HIMIP collection. According to the French law, HIMIP collection has been declared to the Ministry of Higher Education and Research (DC 2008-307 collection 1) and obtained a transfer agreement (AC 2008-129) after approbation by ethical committees (Comité de Protection des Personnes Sud-Ouest et Outremer II and APHP ethical committee). Clinical and biological annotations of the samples have been declared to the CNIL (Comité National Informatique et Libertés i.e. Data processing and Liberties National Committee). Frozen cells were thawed in IMDM medium with 20% FBS and immediately processed for treatment. All patients were diagnosed at the Department of Hematology of Toulouse University Hospital.
Clonogenic assay. […] Leukemic colonies were then scored under an inverted microscope.

[7] = target: Cdc25A (Homo sapiens, UniProt P30304); details: cited from earlier work
Chain of Cdc25A (P30304 whole entry): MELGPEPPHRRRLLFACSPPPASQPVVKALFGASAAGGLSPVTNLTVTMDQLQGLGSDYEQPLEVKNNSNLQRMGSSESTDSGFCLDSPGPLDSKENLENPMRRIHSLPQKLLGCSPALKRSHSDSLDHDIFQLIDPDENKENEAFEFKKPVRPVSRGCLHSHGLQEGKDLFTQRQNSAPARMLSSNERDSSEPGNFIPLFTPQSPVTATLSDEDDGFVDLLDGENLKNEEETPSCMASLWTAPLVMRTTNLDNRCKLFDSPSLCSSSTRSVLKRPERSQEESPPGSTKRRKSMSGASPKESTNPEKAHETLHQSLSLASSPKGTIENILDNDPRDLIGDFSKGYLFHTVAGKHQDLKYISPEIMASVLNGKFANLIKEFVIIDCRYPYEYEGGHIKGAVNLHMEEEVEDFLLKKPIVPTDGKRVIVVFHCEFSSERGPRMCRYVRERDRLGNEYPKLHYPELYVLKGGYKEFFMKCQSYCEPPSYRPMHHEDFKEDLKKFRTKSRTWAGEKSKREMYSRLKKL

SMILES: Cc1nc2c(s1)C(=O)C=C(NCCCN(C)CCCNC1=CC(=O)c3nc(-c4cc(F)ccc4F)oc3C1=O)C2=O [IRC-083864]
- proliferation of MOLM-14 [1]: robust inhibition
- proliferation of KG1 ([2]; 200 nM): did not decrease
- proliferation of KG1 upon stimulation by FLT3 ligand ([2]; FLT3 ligand stimulation): had no effect
- proliferation of TF-1 [3]: did not decrease
- proliferation of K562 [4]: did not decrease
- proliferation and death of ITD/TKD cells [5]: induced cell proliferation arrest and cell death
- clonogenic potential of FLT3-ITD positive primary cells [6]: significantly reduced
- IC50 Cdc25 enzyme type A [7]: nanomolar range

— US10179914B2, “CDC25A inhibitor for the treatment of drug resistant cancer or for the prevention of tumor relapse” (INSERM (INSTITUT NATIONAL DE LA SANTÉ ET DE LA RECHERCHE …, priority 2014, dated 2019)
